Results as given in patent publication US20250381110A1, “SKIN CARE COMPOSITION AND METHOD OF USING THE SAME” (THE PROCTER & GAMBLE COMPANY, priority 2024, published 2025).
Where two headings read alike, the source gives them in different places.

Tested on: p62-dependent mitophagy
Assay: Luciferase-p62 assay (Fluc-p62 clearance) in mouse embryonic fibroblasts
Type: cell-based
Description: To identify p62-dependent materials which increase mitophagy, a Luciferase-p62 Assay was established. This method provides an approach to measure the ability of a material to modulate p62-dependent mitophagy by using an inducible firefly luciferase-p62 (Fluc-p62) reporter cell system. In this assay, p62 levels are driven by doxycycline treatment. After levels increased, expression of Fluc-p62 is turned off by removal of doxycycline, materials are then added and assessed for how they affect clearance of Fluc-p62 protein, which is proportionate to cellular mitophagy rates (Kelly et al.). The negative control is doxycycline induced Luc-p62 in the absence of compound or bioactive material treatment and in the presence of vehicle (DMSO).
Test materials including bioactive materials were screened in mouse embryonic fibroblasts (MEFs, Harada et al.) expressing the TET-inducible p62-fluc construct as previously described (Brown et al.). […] Gibson assembly was used to insert firefly luciferase (Fluc) and p62 into the pCW57.1 backbone. Fluc, p62, and pCW57.1 were polymerase chain reaction (PCR) amplified using pfu polymerase (Life technologies) and Gibson assembly primers with 20 base pair (bp) overhangs. PCR products were separated by agarose gel electrophoreses, and fragments excised and purified before use in DNA assembly reaction with NEBuilder HiFi DNA Assembly kit (New England Biolabs). After the assembly, the reaction mix was transformed into NEB3040 Stable Competent Escherichia coli (New England Biolabs). After 24 hours growth at 31 degrees Celsius the plasmid was extracted using QIAprep Spin Miniprep kit (Qiagen). The plasmid was sequenced to confirm correct insertion of Fluc-p62. To generate MEFs stably expressing doxycycline inducible Fluc-p62, HEK293FT cells were transfected with Fluc-p62-pCW57.1 and the ViraPower Packaging Mix (Invitrogen) to produce lentivirus. MEFs were transduced with the obtained lentiviral stock following followed by selection with 1 microgram per milliliter puromycin.Fluc-p62expressing MEFs were maintained in DMEM supplemented with 10 percent fetal bovine serum (FBS), 100 units per milliliter penicillin/streptomycin, and 2 millimolar L-glutamine in a humidified atmosphere containing 5 percent carbon dioxide at 37 degrees Celsius. Cells were plated into white 96 well plates (2,000 cells per well with 100 microliters media) and allowed to settle for 24 hours. […] Subsequently, cells were treated with test materials for 48 hours in normal growth medium and analysed using ONE-Glo™+Tox Luciferase Reporter and Cell Viability Assay (Promega) by following the manufacturer's protocol.
Test compositions and control compositions were prepared as described above in the Luciferase-p62 assay (Method 3) and tested accordingly. The compounds used in this example, as examples of bioactive materials, were from the APExBIO DiscoveryProbe™ Natural Product Library Plus (Houston, TX) and evaluated at equivalent concentrations (10 μM).
Data are additionally calculated as percentage of activity relative to rapamycin, a benchmark control compound tested in the same experiment.

[1] = Luciferase-p62 assay, mouse embryonic fibroblasts (MEFs), compounds at 10 μM
[2] = percentage of Luciferase-p62 clearance relative to baseline (mean luminescence in the absence of doxycycline induction), MEFs, 10 μM
[3] = percentage of activity relative to rapamycin tested in the same experiment at the same concentration, MEFs, 10 μM

Structure (SMILES) | Mean Luminescence [1] | % Activity over baseline [2] | % Activity relative to Rapamycin [3] | Mean Luminescence | % Activity over baseline (10 µM) | % Activity relative to Rapamycin (10 µM)
C[C@]12CCC(=O)C=C1CC[C@@H]1[C@@H]2[C@@H](O)C[C@@]2(C)[C@H]1CC[C@]2(O)C(=O)COC(=O)CCC(=O)[O-].[Na+] | 927.92 | 42.65% | 76.85% |  |  | 
Nc1nc(=O)c2c([nH]1)NCC(CNc1ccc(C(=O)N[C@@H](CCC(=O)O)C(=O)O)cc1)N2C=O (mixture of isomers) [Folinic acid] | 762.92 | 52.85% | 95.22% |  |  | 
O=C1O[C@H]2[C@@H]3OC(=O)c4cc(O)c(O)c(O)c4-c4c(O)c(O)c5oc(=O)c6c(c(O)c(O)c7oc(=O)c4c5c76)-c4c(cc(O)c(O)c4O)C(=O)OC[C@H]3OC(O)[C@@H]2OC(=O)c2cc(O)c(O)c(O)c2-c2c1cc(O)c(O)c2O (mixture of isomers) [Punicalagin] | 782.52 | 51.64% | 93.04% |  |  | 
C[N+](C)(C)CC(O)CC(=O)O.[Cl-] (racemic) [DL-Carnitine HCl] | 902.01 | 44.26% | 79.74% |  |  | 
CC(C)(CO)C(O)C(=O)NCCCO (racemic) [DL-Panthenol] | 991.50 | 38.72% | 69.77% |  |  | 
CSCCC(NC(C)=O)C(=O)O (racemic) [N-Acetyl-DL-methionine] | 973.29 | 39.85% | 71.80% |  |  | 
O=C1C=CC(=O)C=C1 [1,4-Benzoquinone] | 422.02 | 73.92% | 133.18% |  |  | 
Cl.Cl.NCCCCN [1,4-Diaminobutane dihydrochloride] |  |  |  | 902.42 | 44.23% | 79.69%
O=c1ccn2c(n1)O[C@H]1[C@H](O)[C@@H](CO)O[C@H]12 [2,2′-Cyclouridine] | 935.30 | 42.20% | 76.03% |  |  | 
CC(=O)C(C)=NO [2,3-Butanedione-2-monoxime] | 762.32 | 52.89% | 95.29% |  |  | 
Cc1cnc(C)cn1 [2,5-Dimethyl pyrazine] | 842.32 | 47.94% | 86.38% |  |  | 
CC(=O)c1cc(O)ccc1O [2′,5′-Dihydroxyacetophenone] | 709.63 | 56.14% | 101.16% |  |  | 
O=C(O)Cc1cccc(O)c1 [3-Hydroxyphenylacetic acid] | 888.33 | 45.10% | 81.26% |  |  | 
CC(CC(=O)O)CC(=O)O [3-Methylglutaric acid] | 818.33 | 49.43% | 89.05% |  |  | 
COc1ccc(CC(=O)O)cc1 [4-Methoxyphenylacetic acid] | 929.33 | 42.57% | 76.69% |  |  | 
C=CCCC(=O)O [4-Pentenoic acid] | 936.28 | 42.14% | 75.92% |  |  | 
C=C1CCC2C(C=C(C)C(=O)C3(OC(C)=O)CC(C)C(OC(=O)c4ccccc4)C3C1OC(C)=O)C2(C)C (stereo not shown) [5,15-Diacetyl-3-benzoyllathyrol] | 927.14 | 42.70% | 76.94% |  |  | 

Structure (SMILES) | Mean Luminescence [1] | % Activity over baseline [2] | % Activity relative to Rapamycin [3] | Mean Luminescence | % Activity over baseline (10 µM) | % Activity relative to Rapamycin (10 µM)
C=CCNC1=C2C[C@@H](C)C[C@H](OC)[C@H](O)[C@@H](C)/C=C(\C)[C@H](OC(N)=O)[C@@H](OC)/C=C\C=C(/C)C(=O)NC(=CC1=O)C2=O [17-AAG (KOS953)] | 299.07 | 81.52% | 146.87% |  |  | 
C=C(C)[C@H]1CC=C(C)C(=O)C1 [(S)-(+)-Carvone] | 802.50 | 50.40% | 90.82% |  |  | 
CC1(C)C2CCC1(C)C(O)C2 (stereo not shown) [(—)-Borneol] | 967.20 | 40.23% | 72.48% |  |  | 
COc1ccc(/C=C/C(=O)/C=C(O)/C=C/c2ccc(OC)c(OC)c2)cc1OC [ASC-J9] | 664.12 | 58.96% | 106.23% |  |  | 
Nc1ncnc2c1ncn2[C@@H]1O[C@H](COP(=O)(O)OP(=O)(O)OP(=O)(O)O)[C@@H](O)[C@H]1O [ATP] | 875.39 | 45.90% | 82.70% |  |  | 
COc1cc(C=O)ccc1OC(C)=O [Acetylvanillin] | 979.34 | 39.48% | 71.13% |  |  | 
Cc1cnc(C(=O)O)c[n+]1[O-] [Acipimox] | 922.85 | 42.97% | 77.42% |  |  | 
COc1cc(C)c(/C=C/C(C)=C/C=C/C(C)=C/C(=O)O)c(C)c1C [Acitretin] | 883.02 | 45.43% | 81.85% |  |  | 
Nc1ncnc2c1ncn2[C@@H]1O[C@H](COP(=O)(O)O)[C@@H](O)[C@H]1O [Adenosine 5-monophosphate] | 890.00 | 45.00% | 81.07% |  |  | 
C=C1CC[C@@H]2[C@](C)(CO)[C@H](O)CC[C@@]2(C)[C@@H]1C/C=C1/C(=O)OC[C@H]1O [Andrographolide] | 818.97 | 49.39% | 88.98% |  |  | 
O=c1ccc2ccc3occc3c2o1 [Angelicin] | 910.28 | 43.74% | 78.82% |  |  | 
COc1cc(C(C)=O)ccc1O [Apocynin] | 973.30 | 39.85% | 71.80% |  |  | 
CO[C@H]1O[C@@H]2O[C@@]3(C)CC[C@H]4[C@H](C)CC[C@@H]([C@H]1C)[C@@]24OO3 [Artemether (SM-224)] | 596.56 | 63.13% | 113.75% |  |  | 
C[C@@H]1CC[C@H]2[C@@H](C)C(=O)O[C@@H]3O[C@@]4(C)CC[C@@H]1[C@]32OO4 [Artemisinine] |  | 39.29% |  |  |  | 
CC[C@@H]1/C=C(\C)C[C@H](C)C[C@H](OC)[C@H]2O[C@@](O)(C(=O)C(=O)N3CCCC[C@H]3C(=O)O[C@H](/C(C)=C/[C@@H]3CC[C@@H](O)[C@H](OC)C3)[C@H](C)[C@@H](O)CC1=O)[C@H](C)C[C@@H]2OC [Ascomycin(FK 520)] | 640.39 | 60.42% | 108.87% |  |  | 
CC1(C)CC[C@]2(C(=O)O[C@@H]3O[C@H](CO[C@@H]4O[C@H](CO)[C@@H](O)[C@H](O)[C@H]4O)[C@@H](O)[C@H](O)[C@H]3O)CC[C@]3(C)C(=CC[C@@H]4[C@@]5(C)CC[C@H](O[C@@H]6OC[C@H](O)[C@H](O)[C@H]6O)[C@@](C)(CO)[C@@H]5CC[C@]43C)[C@@H]2C1 [Asperosaponin VI] | 955.83 | 40.93% | 73.74% |  |  | 
